Data reported in patent US4335249A, “Herbicidal diphenyl ethers, sulfides, sulfoxides and sulfones” (Rohm and Haas Company, priority 1976, dated 1982).

Legend:
Assay type in all cases: in vivo
[1] = tested on: cocklebur (Xanthium pensylvanicum); test: Preemergence herbicidal activity, cocklebur; conditions: Xanthium strumarium, pre-emergence, 336 h, 2 lb/A
Outline: (§1)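 Pre: flats treated immediately post-planting. Post: treated 2 wk after germination. Spray = acetone/water solution, 50 gal/acre carrier, rate in lb/A. Read ~2 wk after treatment as average % plants killed.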

marigold (Tagetes spp.) [2] = test: Preemergence herbicidal activity, marigold; conditions: pre-emergence, 336 h, 2 lb/A
Outline: as §1

[3] = tested on: morningglory (Ipomoca spp.); test: Preemergence herbicidal activity, morningglory; conditions: Ipomoea, pre-emergence, 336 h, 2 lb/A
Outline: as §1

[4] = tested on: tomato (Lycopersicon esculentum); test: Preemergence herbicidal activity, tomato; conditions: Solanum lycopersicum, pre-emergence, 336 h; Pre, 2 lb/A
Outline: as §1

[5] = tested on: velvetleaf (Abutilon theophrasti); test: Preemergence herbicidal activity, velvetleaf; conditions: Abutilon theophrasti, pre-emergence, 336 h; Pre, 2 lb/A
Outline: as §1

[6] = tested on: barnyardgrass (Echinochloa crusgalli); test: Preemergence herbicidal activity, barnyardgrass; conditions: Echinochloa crus-galli, pre-emergence, 336 h; Pre, 2 lb/A
Outline: (§2)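 Sown flats got a foliar or soil spray of compound in water-diluted acetone (carrier equivalent to 50 gallons/acre, rate in pounds per acre), given on the day of planting or, postemergence, once seedlings were two weeks old.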

[7] = tested on: downybrome (Bromus tectorum); test: Preemergence herbicidal activity, downybrome; conditions: Bromus tectorum, pre-emergence, 336 h, Pre, 2 lb/A
Outline: as §1

foxtail (Setaria spp.) [8] = test: Preemergence herbicidal activity, foxtail; conditions: Setaria, pre-emergence, 336 h; Pre, 2 lb/A
Outline: as §1

[9] = tested on: yellow nutsedge (Cyperus esculentus); test: Preemergence herbicidal activity, yellow nutsedge; conditions: Cyperus, pre-emergence, 336 h, 2 lb/A
Outline: as §1

wild oats (Avena fatua) [10] = test: Preemergence herbicidal activity, wild oats; conditions: Avena fatua, pre-emergence, 336 h, Pre, 2 lb/A; read-out: % control, Wild oat
Outline: as §1

[11] = tested on: cocklebur (Xanthium pensylvanicum); test: Postemergence herbicidal activity, cocklebur; conditions: Xanthium strumarium, post-emergence, 336 h, 2 lb/A
Outline: as §1

marigold (Tagetes spp.) [12] = test: Postemergence herbicidal activity, marigold; conditions: post-emergence, 336 h, 2 lb/A
Outline: as §1

[13] = tested on: morningglory (Ipomoca spp.); test: Postemergence herbicidal activity, morningglory; conditions: Ipomoea, post-emergence, 336 h, 2 lb/A
Outline: as §1

[14] = tested on: tomato (Lycopersicon esculentum); test: Postemergence herbicidal activity, tomato; conditions: Solanum lycopersicum, post-emergence, 336 h, Post, 2 lb/A
Outline: as §1

[15] = tested on: velvetleaf (Abutilon theophrasti); test: Postemergence herbicidal activity, velvetleaf; conditions: Abutilon theophrasti, post-emergence, 336 h, 2 lb/A
Outline: as §2

[16] = tested on: barnyardgrass (Echinochloa crusgalli); test: Postemergence herbicidal activity, barnyardgrass; conditions: Echinochloa crus-galli, post-emergence, 336 h; Post, 2 lb/A
Outline: as §2

[17] = tested on: downybrome (Bromus tectorum); test: Postemergence herbicidal activity, downybrome; conditions: Bromus tectorum, post-emergence, 336 h, Post, 2 lb/A
Outline: as §1

foxtail (Setaria spp.) [18] = test: Postemergence herbicidal activity, foxtail; conditions: Setaria, post-emergence, 336 h, Post, 2 lb/A
Outline: as §1

[19] = tested on: yellow nutsedge (Cyperus esculentus); test: Postemergence herbicidal activity, yellow nutsedge; conditions: Cyperus, post-emergence, 336 h, 2 lb/A
Outline: as §1

wild oats (Avena fatua) [20] = test: Postemergence herbicidal activity, wild oats; conditions: Avena fatua, post-emergence, 336 h, Post, 2 lb/A; read-out: % control, Wild oat
Outline: as §1

Row | SMILES | pest or weed control at 2241.7 g/ha [1] | pest or weed control at 2241.7 g/ha (marigold (Tagetes spp.) [2]) | pest or weed control at 2241.7 g/ha [3] | pest or weed control at 2241.7 g/ha [4] | pest or weed control at 2241.7 g/ha [5] | pest or weed control at 2241.7 g/ha [6] | pest or weed control at 2241.7 g/ha [7] | pest or weed control at 2241.7 g/ha (foxtail (Setaria spp.) [8]) | pest or weed control at 2241.7 g/ha [9] | pest or weed control at 2241.7 g/ha (wild oats (Avena fatua) [10]) | pest or weed control at 2241.7 g/ha [11] | pest or weed control at 2241.7 g/ha (marigold (Tagetes spp.) [12]) | pest or weed control at 2241.7 g/ha [13] | pest or weed control at 2241.7 g/ha [14] | pest or weed control at 2241.7 g/ha [15] | pest or weed control at 2241.7 g/ha [16] | pest or weed control at 2241.7 g/ha [17] | pest or weed control at 2241.7 g/ha (foxtail (Setaria spp.) [18]) | pest or weed control at 2241.7 g/ha [19] | pest or weed control at 2241.7 g/ha (wild oats (Avena fatua) [20])
1 | CCOC(=O)C(C)Oc1ccc(Oc2ccc(C(F)(F)F)cc2Cl)cc1C (stereo not shown) [Example 10] | 0% | 0% | 0% | 0% | 0% | 0% | 0% | 0% | 0% | 0% | 40% | 0% | 80% | 30% | 40% | 0% | 0% | 0% | 0% | 0%
2 | CC(C#N)Oc1ccc(Oc2ccc(C(F)(F)F)cc2)cc1 (stereo not shown) [Example 41, 2-[4-(4-trifluoromethylphenoxy)phenoxy] propionitrile] | 0% | 0% | 0% | 0% | 0% | 99% | 80% | 100% | 0% | 70% | 0% | 0% | 0% | 0% | 0% | 100% | 40% | 60% | 0% | 99%
